Experimental data published in patent US20240293367A1, “METHODS OF TREATING DISORDERS WITH A […]” (Cybin IRL Limited, priority 2023, published 2024).

Test system: participants with MDD
Assay: MADRS total score, response, remission and relapse in MDD participants (Phase I/IIa study)
Assay type: in vivo, human
Source text: Cohorts 1, 4, 5, and 6 of the study was comprised of participants with MDD. Cohorts 2, 3, and the relative BA cohort of the study were comprised of normal healthy volunteers (NHV). […] MDD participants had been on a stable dose of antidepressant medication for at least one month prior to screening with an inadequate response to that antidepressant medication as judged by the Investigator, and continued to receive their prescribed antidepressant throughout the course of the study.
Cohorts 4 and 5. For Cohorts 4 and 5, 12 participants each (24 participants total) were randomized in a 3:1 ratio to receive 12 mg of psilocin-d10 or matched placebo in a single dosing session on Day 1. Following a 21-day interval, all participants received a dose of 12 mg psilocin-d10 on Day 22 (second dose for participants originally randomized to psilocin-d10, first dose for participants randomized to placebo), and were followed to Day 42.
Cohort 6. For Cohort 6, 12 participants were randomized in a 3:1 ratio to receive 16 mg of psilocin-d10 or matched placebo in a single dosing session on Day 1. Following a 21-day interval, all participants received a dose of 16 mg psilocin-d10 on Day 22 (second dose for participants originally randomized to psilocin-d10, first dose for participants randomized to placebo), and were followed to Day 42. Given the availability of data and considering that the secondary endpoint was a change in baseline to Day 21 in MADRS, efficacy data presented herein considers the data cut off of Day 21 postdose. One participant had to be withdrawn from the study due to pregnancy.
The primary efficacy endpoint defined in the statistical analysis plan (SAP) is the change from baseline to Day 21 of the total Montgomery-Åsberg Depression Rating Scale (MADRS) score compared to placebo, therefore efficacy data presented herein considers the data cut off of Day 21 postdose. Mean total score and change from baseline on Montgomery-Åsberg Depression Rating Scale (MADRS) on days 1, 10, 17, 22, 31, 38, and 42 are presented as secondary efficacy endpoints.
The secondary objective of the study was to evaluate the efficacy of psilocin-d10 in treating symptoms of MDD as measured by the change from baseline to Day 21 of the MADRS total score in the Intent-to-Treat population, with data analyzed according to the treatment group each participant was randomized to receive. Data from participants in Cohorts 4, 5, and 6 randomized to placebo was pooled for analysis purposes (N=9). Data from participants in Cohorts 4, 5, and 6 randomized to 12 mg or 16 mg psilocin-d10 (N=27) was also pooled for analysis.
Data from the study was also analyzed according to dosage level of psilocin-d10. Data from participants in Cohorts 4, 5, and 6 randomized to placebo was pooled for analysis purposes (N=9). Data from participants in Cohorts 4 and 5 (treated with 12 mg psilocin-d10) was also pooled for analysis (N=18).
The rates of remission, response, and relapse were also evaluated within the study. […] Additionally, 20.8% (5 out of 24) of participants in the psilocin-do group (12 mg and 16 mg combined) were in remission (remitters) (defined as a MADRS score of ≤10) compared to 0% for placebo at Day 21. The same 5 participants who were in remission were also classified as responders. None of the participants relapsed at Day 21 compared to baseline.
The MADRS is a 10-item scale with ratings based on a clinical interview which moves from broadly phrased questions about symptoms to more detailed ones allowing a precise rating of severity. A rating scale from 0 to 6 is employed and the rater must decide whether the rating lies on defined scale steps (0, 2, 4, 6) or between them (1, 3, 5). The MADRS can be used for any time interval between ratings, be it weekly or otherwise, and the time interval should be recorded. […]

[1] = Day 21, 12 mg single dose, Cohorts 4 and 5
[2] = Day 21, 16 mg single dose, Cohort 6
[3] = Day 21, single dose, 12 and 16 mg pooled

## [2H]C([2H])([2H])N(C([2H])([2H])[2H])C([2H])([2H])C([2H])([2H])c1c[nH]c2cccc(O)c12 [psilocin-d10, 3-(2-(bis(methyl-d3)amino)ethyl-1,1,2,2-d4)-1H-indol-4-ol]
10 days post first dose, 12 mg and 16 mg pooled
  mean reduction in baseline MADRS: 55%
10 days post second dose
  reduction in baseline MADRS: 66%
ANOVA [2], Placebo/active group (one dose Day 22)
  MADRS change from baseline, LS Mean (Std Err) for Day 42: −16.48 (3.50)
ANOVA [2], two doses, 12 and 16 mg pooled
  MADRS change from baseline, LS Mean (Std Err) for Day 42: −21.04 (2.24)
ANOVA [3], within Placebo/active group
  MADRS change from baseline, LS Mean (Std Err) for Day 42: −16.54 (2.89)
ANOVA at Day 21, 12 mg
  MADRS change from baseline, LS Mean: −16.70
ANOVA at Day 21, 16 mg
  MADRS change from baseline, LS Mean: −15.61
ANOVA at Day 42 (by dosage level), Placebo/active group (one dose Day 22)
  MADRS change from baseline, LS Mean: −16.48
ANOVA at Day 42, two 12 mg doses
  MADRS change from baseline, LS Mean: −19.83
ANOVA at Day 42, two 16 mg doses
  MADRS change from baseline, LS Mean: −23.41
ANOVA, 12 and 16 mg pooled
  MADRS change from baseline, LS Mean (Std Err) for Day 21: −16.33 (1.30)
Day 10 after single dose (baseline 32.2)
  MADRS mean total score: 17.7
Day 21, 12 mg (3 out of 15)
  participants in remission: 20%
Day 21, 12 mg (8 out of 15)
  participants with response: 53.3%
Day 21, 12 mg and 16 mg combined (5 out of 24)
  participants in remission (MADRS ≤10): 20.8%
Day 21, 12 mg and 16 mg combined (12 out of 24)
  participants with response (≥50% reduction from baseline MADRS): 50%
[1]
  MADRS total score, Change from Baseline, Mean: −17.0
  MADRS total score, Change from Baseline, Median: −17.0
  MADRS total score, Observed, Mean: 15.9
  MADRS total score, Observed, Median: 14.0
Day 21, 16 mg (2 out of 9)
  participants in remission: 22.2%
Day 21, 16 mg (4 out of 9)
  participants with response: 44.4%
[2]
  MADRS total score, Change from Baseline, Mean: −14.9
  MADRS total score, Change from Baseline, Median: −17.0
  MADRS total score, Observed, Mean: 16.6
  MADRS total score, Observed, Median: 18.0
Day 21, Cohort 4, 12 mg
  Relapse - No: 7 (100.0) n (%)
  Relapse - Yes: 0 (0.0) n (%)
  Remission (MADRS ≤10) - Yes: 2 (28.6) n (%)
  Remission - No: 5 (71.4) n (%)
  Response (≥50% reduction from baseline MADRS) - Yes: 4 (57.1) n (%)
  Response - No: 3 (42.9) n (%)
Day 21, Cohort 5, 12 mg
  Relapse - No: 8 (100.0) n (%)
  Relapse - Yes: 0 (0.0) n (%)
  Remission (MADRS ≤10) - Yes: 1 (12.5) n (%)
  Remission - No: 7 (87.5) n (%)
  Response (≥50% reduction from baseline MADRS) - Yes: 4 (50.0) n (%)
  Response - No: 4 (50.0) n (%)
Day 21, Cohort 6, 16 mg
  Relapse - No: 9 (100.0) n (%)
  Relapse - Yes: 0 (0.0) n (%)
  Remission (MADRS ≤10) - Yes: 2 (22.2) n (%)
  Remission - No: 7 (77.8) n (%)
  Response (≥50% reduction from baseline MADRS) - Yes: 4 (44.4) n (%)
  Response - No: 5 (55.6) n (%)
Day 21, Cohorts 4, 5 and 6, pooled 12 mg and 16 mg
  Remission (MADRS ≤10) - Yes: 5 (20.8) n (%)
Day 21, Cohorts 4 and 5, 12 mg
  Relapse - No: 15 (100.0) n (%)
  Relapse - Yes: 0 (0.0) n (%)
  Remission (MADRS ≤10) - Yes: 3 (20.0) n (%)
  Remission - No: 12 (80.0) n (%)
  Response (≥50% reduction from baseline MADRS) - Yes: 8 (53.3) n (%)
  Response - No: 7 (46.7) n (%)
Day 21, pooled 12 mg and 16 mg
  Relapse - No: 24 (100.0) n (%)
  Relapse - Yes: 0 (0.0) n (%)
  Remission - No: 19 (79.2) n (%)
  Response (≥50% reduction from baseline MADRS) - Yes: 12 (50.0) n (%)
  Response - No: 12 (50.0) n (%)
[3]
  MADRS total score, Change from Baseline, Mean: −16.2
  MADRS total score, Change from Baseline, Median: −17.0
  MADRS total score, Observed, Mean: 16.1
  MADRS total score, Observed, Median: 16.5
Day 21, 95% CI (−12.2, 10.1), P 0.8421
  MADRS, Difference in LS Means, 12 mg compared to Cohort 6 (16 mg): −1.09
Day 21, 95% CI (−20.5, −7.7), P 0.0001
  MADRS, Difference in LS Means, 12 mg compared to placebo: −14.11
Day 21, 95% CI (−22.3, −3.7), P 0.0080
  MADRS, Difference in LS Means, 16 mg compared to placebo: −12.99
Day 21 after single dose
  mean decrease from baseline MADRS: 50%
Day 31 (10 days post second dose)
  MADRS mean total score: 6.7
Day 42, Cohort 4, two 12 mg doses
  Relapse - No: 7 (100.0) n (%)
